Results: PubChem BioAssay AID328 (DTP/NCI, 2004)
“And” between values parts separate entries of the source, which are not always exact repeats. Identical values can stand only once. Toxic doses and inconclusive results are not listed.

System: BDF1 mice, P388 leukemia ip, median survival T/C
Assay: NCI In Vivo Anticancer Drug Screen. Data for tumor model P388 Leukemia (intraperitoneal) in B6D2F1 (BDF1) mice
Settings: endpoint: median survival time, higher = longer survival
Outline: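 Compound-treated tumour-bearing mice were compared with vehicle-treated controls. Survival was recorded, and the value is the treated-group measurement divided by the control-group measurement (T/C).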

[1] = dose: 25.0 mg/kg/injection, schedule: Q01DX009 (ip), vehicle: water
[2] = dose: 100.0 mg/kg/injection, schedule: Q01DX009 (ip), vehicle: Klucel (hydroxypropylcellulose) (HPC)
[3] = dose: 200.0 mg/kg/injection, schedule: Q01DX009 (ip), vehicle: Klucel (hydroxypropylcellulose) (HPC)
[4] = dose: 400.0 mg/kg/injection, schedule: Q01DX009 (ip), vehicle: Klucel (hydroxypropylcellulose) (HPC)
[5] = dose: 150.0 mg/kg/injection, schedule: Q04DX003 (ip), vehicle: Klucel (hydroxypropylcellulose) (HPC)
[6] = dose: 75.0 mg/kg/injection, schedule: Q04DX003 (ip), vehicle: Klucel (hydroxypropylcellulose) (HPC)
[7] = dose: 300.0 mg/kg/injection, schedule: Q04DX003 (ip), vehicle: Klucel (hydroxypropylcellulose) (HPC)
[8] = dose: 75.0 mg/kg/injection, schedule: Q01DX009 (ip), vehicle: saline with Tween-80

With `O=C(Cc1ccccc1)Cc1ccccc1` the T/C [1] was 99 % of control, the T/C (dose: 50.0 mg/kg/injection, schedule: Q01DX009 (ip), vehicle: water) was 99 % of control and the T/C (dose: 100.0 mg/kg/injection, schedule: Q01DX009 (ip), vehicle: water) was 90 % of control. The T/C (dose: 200.0 mg/kg/injection, schedule: Q01DX009 (ip), vehicle: water) was 97 % of control, the T/C (dose: 200.0 mg/kg/injection, schedule: Q04DX003 (ip), vehicle: water) was 97 % of control and 100 % of control and the T/C (dose: 300.0 mg/kg/injection, schedule: Q04DX003 (ip), vehicle: water) was 89 % of control and 97 % of control. The T/C (dose: 400.0 mg/kg/injection, schedule: Q01DX009 (ip), vehicle: water) was 109 % of control, the T/C (dose: 400.0 mg/kg/injection, schedule: Q04DX003 (ip), vehicle: water) was 93 % of control and 100 % of control and the T/C (dose: 500.0 mg/kg/injection, schedule: Q04DX003 (ip), vehicle: water) was 108 % of control. The T/C (dose: 600.0 mg/kg/injection, schedule: Q04DX003 (ip), vehicle: water) was 98 % of control.

`Cc1c(O)c2c(c(O)c1Cc1ccc(CN)cc1)C(=O)c1ccccc1C2=O` was tested, and the T/C (dose: 12.5 mg/kg/injection, schedule: Q01DX009 (ip), vehicle: water) was 90 % of control and the T/C [1] was 114 % of control.

With `O=[N+]([O-])c1ccc(-c2ncc3cnccn23)cc1` the T/C (dose: 100.0 mg/kg/injection, schedule: Q04DX003 (ip), vehicle: saline) was 111 % of control, the T/C (dose: 200.0 mg/kg/injection, schedule: Q04DX003 (ip), vehicle: saline) was 97 % of control and the T/C (dose: 400.0 mg/kg/injection, schedule: Q04DX003 (ip), vehicle: saline) was 102 % of control.

For `COc1cc2c(cc1OC)C(=O)C(C(=O)c1ccccc1)C2` (configuration not stated), the T/C [2] was 100 % of control, the T/C (dose: 100.0 mg/kg/injection, schedule: Q04DX003 (ip), vehicle: Klucel (hydroxypropylcellulose) (HPC)) was 100 % of control and the T/C [3] was 100 % of control. For the same compound, the T/C (dose: 200.0 mg/kg/injection, schedule: Q04DX003 (ip), vehicle: Klucel (hydroxypropylcellulose) (HPC)) was 100 % of control, the T/C [4] was 91 % of control and the T/C (dose: 400.0 mg/kg/injection, schedule: Q04DX003 (ip), vehicle: Klucel (hydroxypropylcellulose) (HPC)) was 112 % of control.

In the case of `CC(O)(CCCCCCCC(C)(O)c1ccccc1)c1ccccc1` (configuration not stated), the T/C (dose: 100.0 mg/kg/injection, schedule: Q01DX001 (ip), vehicle: saline with Tween-80) was 100 % of control, the T/C (dose: 200.0 mg/kg/injection, schedule: Q01DX001 (ip), vehicle: saline with Tween-80) was 100 % of control and the T/C (dose: 400.0 mg/kg/injection, schedule: Q01DX001 (ip), vehicle: saline with Tween-80) was 100 % of control.

In the case of `COc1ccccc1/C=C(/C)[N+](=O)[O-]`, the T/C (dose: 10.0 mg/kg/injection, schedule: Q01DX010 (ip), vehicle: steriod suspending solution) was 90 % of control, the T/C (dose: 14.0 mg/kg/injection, schedule: Q01DX010 (ip), vehicle: steriod suspending solution) was 110 % of control and the T/C (dose: 22.0 mg/kg/injection, schedule: Q01DX010 (ip), vehicle: steriod suspending solution) was 120 % of control. The T/C (dose: 33.0 mg/kg/injection, schedule: Q01DX010 (ip), vehicle: carboxymethylcellulose (CMC)) was 175 % of control, the T/C (dose: 33.0 mg/kg/injection, schedule: Q01DX010 (ip), vehicle: steriod suspending solution) was 120 % of control and the T/C (dose: 50.0 mg/kg/injection, schedule: Q01DX010 (ip), vehicle: steriod suspending solution) was 120 % of control. For the same compound, the T/C (dose: 70.0 mg/kg/injection, schedule: Q01DX010 (ip), vehicle: steriod suspending solution) was 110 % of control and the T/C (dose: 75.0 mg/kg/injection, schedule: Q01DX010 (ip), vehicle: carboxymethylcellulose (CMC)) was 95 % of control.

With `O=c1c2ccccc2c2nc3ccc4c(=O)c5ccccc5c5nc6ccc1c2c6c3c45` the T/C (dose: 50.0 mg/kg/injection, schedule: Q01DX005 (ip), vehicle: saline with Tween-80) was 100 % of control and the T/C (dose: 100.0 mg/kg/injection, schedule: Q01DX005 (ip), vehicle: saline with Tween-80) was 100 % of control.

`O=C1C=C(Nc2nc(O)cc(=O)[nH]2)c2ccccc2C1=O` was tested, and the T/C (dose: 37.5 mg/kg/injection, schedule: Q01DX001 (ip), vehicle: Klucel (hydroxypropylcellulose) (HPC)) was 100 % of control, the T/C (dose: 75.0 mg/kg/injection, schedule: Q01DX001 (ip), vehicle: Klucel (hydroxypropylcellulose) (HPC)) was 100 % of control and the T/C (dose: 150.0 mg/kg/injection, schedule: Q01DX001 (ip), vehicle: Klucel (hydroxypropylcellulose) (HPC)) was 100 % of control. The T/C [5] was 95 % of control.

For `O=C1c2ccccc2CCCC12OC2c1ccccc1` (configuration not stated), the T/C [6] was 95 % of control, the T/C [5] was 104 % of control and the T/C [7] was 90 % of control.

`CCC(=O)OCc1ccc(Cl)cc1` was tested, and the T/C [6] was 100 % of control, the T/C [5] was 100 % of control and the T/C [7] was 100 % of control.

In the case of `CC(=O)OCC1OC(n2cc(C(F)(F)F)c(=O)[nH]c2=O)CC1OC(C)=O` (configuration not stated), the T/C (dose: 62.5 mg/kg/injection, schedule: Q01DX009 (ip), vehicle: Klucel (hydroxypropylcellulose) (HPC)) was 95 % of control, the T/C [2] was 100 % of control and the T/C (dose: 125.0 mg/kg/injection, schedule: Q01DX009 (ip), vehicle: Klucel (hydroxypropylcellulose) (HPC)) was 109 % of control. For the same compound, the T/C [3] was 100 % of control, the T/C (dose: 250.0 mg/kg/injection, schedule: Q01DX009 (ip), vehicle: Klucel (hydroxypropylcellulose) (HPC)) was 90 % of control and the T/C [4] was 105 % of control. The T/C (dose: 500.0 mg/kg/injection, schedule: Q01DX009 (ip), vehicle: Klucel (hydroxypropylcellulose) (HPC)) was 109 % of control.

In the case of `O=C1NC(=O)C(=Cc2cc3c(cc2Br)OCO3)C(=O)N1`, the T/C [8] was 123 % of control, the T/C (dose: 100.0 mg/kg/injection, schedule: Q01DX009 (ip), vehicle: saline with Tween-80) was 124 % of control and the T/C (dose: 150.0 mg/kg/injection, schedule: Q01DX009 (ip), vehicle: saline with Tween-80) was 120 % of control.

For `CCC(C)(CCC(=O)O)c1ccccc1` (configuration not stated), the T/C (dose: 100.0 mg/kg/injection, schedule: Q04DX002 (ip), vehicle: saline with Tween-80) was 97 % of control, the T/C (dose: 200.0 mg/kg/injection, schedule: Q04DX002 (ip), vehicle: saline with Tween-80) was 103 % of control and the T/C (dose: 400.0 mg/kg/injection, schedule: Q04DX002 (ip), vehicle: saline with Tween-80) was 106 % of control.

For `CC1=C(C(=O)OCc2ccccc2)C(c2ccc(Cl)cc2)C(C(=O)OCc2ccccc2)=C(C)N1`, the T/C (dose: 12.5 mg/kg/injection, schedule: Q01DX009 (ip), vehicle: other) was 100 % of control, the T/C (dose: 25.0 mg/kg/injection, schedule: Q01DX009 (ip), vehicle: other) was 94 % of control and the T/C (dose: 50.0 mg/kg/injection, schedule: Q01DX009 (ip), vehicle: other) was 90 % of control. For the same compound, the T/C (dose: 100.0 mg/kg/injection, schedule: Q01DX009 (ip), vehicle: other) was 89 % of control and the T/C (dose: 200.0 mg/kg/injection, schedule: Q01DX009 (ip), vehicle: other) was 90 % of control.

`NNc1ccnc2[nH]ncc12` was tested, and the T/C (dose: 6.25 mg/kg/injection, schedule: Q01DX006 (ip), vehicle: saline with Tween-80) was 107 % of control, the T/C (dose: 12.5 mg/kg/injection, schedule: Q01DX006 (ip), vehicle: saline with Tween-80) was 104 % of control and the T/C (dose: 25.0 mg/kg/injection, schedule: Q01DX006 (ip), vehicle: saline with Tween-80) was 104 % of control.

For `C1CC[N-]CC1.C1CC[N-]CC1.C1CC[N-]CC1.C1CC[N-]CC1.[Cl][Co][Cl]`, the T/C (dose: 25.0 mg/kg/injection, schedule: Q01DX009 (ip), vehicle: saline with Tween-80) was 118 % of control, the T/C (dose: 33.0 mg/kg/injection, schedule: Q01DX009 (ip), vehicle: saline with Tween-80) was 100 % of control and the T/C [8] was 120 % of control.

For `[N-]=[N+]=NC(=O)c1cccs1`, the T/C (dose: 50.0 mg/kg/injection, schedule: Q01DX009 (ip), vehicle: saline + alcohol) was 99 % of control.

`S=P(NCCNP(=S)(N1CC1)N1CC1)(N1CC1)N1CC1` was tested, and the T/C (dose: 33.0 mg/kg/injection, schedule: Q04DX003 (ip), vehicle: saline with Tween-80) was 121 % of control, the T/C (dose: 50.0 mg/kg/injection, schedule: Q04DX003 (ip), vehicle: saline with Tween-80) was 256 % of control and the T/C (dose: 75.0 mg/kg/injection, schedule: Q04DX003 (ip), vehicle: saline with Tween-80) was 121 % of control.

For `COC(OC)c1[nH]c(=S)[nH]c(=O)c1C`, the T/C (dose: 100.0 mg/kg/injection, schedule: Q04DX003 (sc), vehicle: olive oil, sesame oil, peanut oil) was 90 % of control, the T/C (dose: 200.0 mg/kg/injection, schedule: Q04DX003 (sc), vehicle: olive oil, sesame oil, peanut oil) was 95 % of control and the T/C (dose: 400.0 mg/kg/injection, schedule: Q04DX003 (sc), vehicle: olive oil, sesame oil, peanut oil) was 90 % of control.

For `CC(=N\O)/C(C)=N/O.CC(=N\O)/C(C)=N/O.O.[CH3-].[Co]`, the T/C (dose: 6.25 mg/kg/injection, schedule: Q01DX009 (ip), vehicle: saline) was 100 % of control and the T/C (dose: 12.5 mg/kg/injection, schedule: Q01DX009 (ip), vehicle: saline) was 97 % of control.
